In patent US20240252472A1, “COMBINATIONS FOR TREATING CANCER” (Purdue Pharma L.P., priority 2023, published 2024):

What was measured:
Type in all cases: cell-based, human
CD38 [1] = assay: CD38 expression on primary myeloma cells from patients ex vivo, flow cytometry; conditions: 2.5 μM, 48 hours; 3 out of 11 patients (low basal expression); not observed with high basal CD38
Method: For surface staining, cells were incubated with the appropriate antibodies and 7AAD (Immunostep) for 15 min in the dark. Data were acquired using a FACSCalibur cytometer (BD Biosciences) and analyzed using Infinicyt™ software (Cytognos). Specifically, the expression of CD38 or ligands for NK cell activating receptors (MICA, MICB, ULBP1-3, PVR and CD112) in MM cell lines was determined on the viable cell population (7AAD-). In primary myeloma cells, the expression of CD38 was analyzed over the viable myeloma population using the panel CD138-FITC/CD56-PE/7AAD/CD38-APC, whereas MICA/B-AF488/CD56-PE/7AAD/CD38-APC panel was used to determine MICA/B expression. Normalized median fluorescence intensity (MFI) was calculated by dividing median fluorescence obtained with the specific antibody by median fluorescence of the corresponding isotype control. MFI for each treatment was expressed as a percentage relative to the control (100%, cells cultured in media with DMSO).
CD38 expression was further examined by flow cytometry in malignant plasma cells from ex vivo cultures of 11 MM patients' bone marrow samples treated with tinostamustine (2.5 μM) for 48 hours.

CD38 [2] = assay: CD38 expression by immunofluorescence in MM cell lines; conditions: RPMI-8226, MOLP-8; 2.5 μM; relative to DMSO control
Method: Immunofluorescence After appropriate treatments in vitro, cells were placed on glass slides coated with poly-L-lysine followed by 15 minutes incubation in a cell culture incubator. Cells were fixed with 4% paraformaldehyde for 30 minutes, blocked with BSA 100 μg/mL for 1 h at room temperature and incubated with a primary antibody (anti-CD38 antibody (1:100)) overnight at 4° C. The incubation with the anti-mouse secondary antibody, labelled with Alexa Fluor 488, was performed in darkness for 1 h at room temperature. After three washes for 5 min in PBS, nuclei were stained with DAPI (Sigma) 1:1000 in PBS for 5 min at room temperature. Finally, cells were washed three times for 10 min in PBS and slides were then mounted using VECTASHIELD Mounting Medium (Vector Laboratories, Burlingame, CA). Fluorescent images were acquired with a LEICA SP5 DMI-6000B confocal microscope (Leica, Wetzlar, Germany) with a 63.0× lens zoomed in 6×.

[3] = system: CD38 histone H3 acetylation; assay: ChIP-qPCR of CD38 histone H3 acetylation; conditions: MM.1S (similar in RPMI-8226); 2.5 μM, 48 hours; vs DMSO
Method: Chromatin Immunoprecipitation RPMI-8226 and MM.1S cell lines were treated with DMSO or tinostamustine (2.5 μM) for 48 hours. Then, the cells were fixed with Pierce™ fresh methanol-free formaldehyde (ThermoFisher) for 15 minutes and prepared for sonication with the truChIP Chromatin Shearing Kit (Covaris, Woburn, MA, USA), following the manufacturer's instructions and as previously described (Garcia-Gomez et al., Nat Commun 12: 421, 2021).
For ChIP-qPCR, samples were diluted 1/10, and 4 μL and specific primers (Supplementary Table 1) were used for each reaction. RT-qPCR was performed in technical triplicates for each biological replicate, using LightCycler® 480 SYBR Green Mix (Roche). The relative amount of immunoprecipitated DNA was compared to the input DNA for each condition.

MOLP-8 cells = assay: Daratumumab cross-linking mediated apoptosis after EDO-S101 pre-treatment; conditions: MOLP-8 pre-treated with EDO-S101 2.5 μM 48 h, daratumumab 1 μg/mL 24 h + F(ab)2; vs not pre-treated, p=0.0454
Method: ADCC, CDC and apoptosis via cross-linking To assess the effect of tinostamustine pre-treatment on cytotoxic mechanisms mediated by daratumumab, MM cell lines were first incubated in presence of tinostamustine (2.5 μM) or DMSO for 48 hours. Cells were then washed to remove tinostamustine or DMSO from the culture medium, and the corresponding cytotoxic assay (ADCC, CDC or apoptosis via cross-linking) was performed.
For the evaluation of ADCC, tinostamustine or DMSO pre-treated cells were cocultured with NK cells obtained from healthy donors in the presence of daratumumab (1 μg/ml) or the corresponding isotype control for 4 hours (ratio 1:1). […] In all three assays, the cytotoxic effect on MM cells was evaluated by flow cytometry with Annexin V/7AAD staining after treatment with daratumumab. […]
MM cells (MOLP-8 cells pre-treated with 0, 0.1, 0.5, 1 or 2.5 μM EDO-S101 for 48 hours in accordance with the methods outlined above) were incubated for 24 hours in the presence of 1 μg/mL daratumumab or the corresponding isotype control, along with 10 μg/mL F(ab)2 fragments for cross-linking. Apoptosis was evaluated by flow cytometry in accordance with the methods outlined above, using AnnexinV/7AAD staining. The effect of EDO-S101 on the crosslinking-mediated apoptosis induced by daratumumab was assessed using the following formula: […]

MICA mRNA = MICA mRNA by RT-qPCR in MM cell lines; conditions: four MM cell lines tested; 1 and 2.5 μM, 36 hours (MOLP-8 6 hours)
Method: Real time quantitative PCR (RT-qPCR) Total RNA was isolated using the RNeasy Mini Kit (Qiagen, Hilden, Germany). Following reverse transcription, PCR was performed using TaqMan Gene Expression Assays (Applied Biosystems, Foster City, CA, USA): CD38 (Hs01120071_m1), MICA (Hs00741286_m1), MICB (Hs00792952_m1) and GAPDH (Hs99999905_m1). The results were expressed as fold change relative to expression of the target gene in control cells, using endogenous expression of GAPDH for normalization.

## Cn1c(CCCCCCC(=O)NO)nc2cc(N(CCCl)CCCl)ccc21 [EDO-S101, 7-(5-(bis(2-chloroethyl)amino)-1-methyl-1H-benzo[d]imidazol-2-yl)-N-hydroxyheptanamide]
CD38 [1]
  CD38 expression in primary myeloma cells: slightly increased
CD38 [2]
  CD38 expression, immunofluorescence: increased
[3]
  CD38 histone H3 acetylation levels: elevated
MOLP-8 cells
  daratumumab-mediated apoptosis via cross-linking: higher
MICA mRNA
  expression of MICA at the mRNA level: increased
